Patent EP4806899A1, “FUSED RING DERIVATIVE, PREPARATION METHOD THEREFOR AND USE THEREOF IN MEDICINE” (Shanghai Qilu Pharmaceutical Research and Development …, priority 2023, dated 2025)
Values joined by “and” are separate entries in the source; they are usually repeats but may differ in a detail not shown here. Equal entries are not always repeated.

Legend:
[1] = Pharmacokinetic determination in mice after gavage administration (P.O.); format: in vivo; settings: male, CD-1, mouse, po, 10 mg/kg, plasma; for AUC(0-t): read-out: AUC0-24
Protocol: Mice and rats were used as test animals to study the pharmacokinetic behavior of the compounds of the present disclosure in plasma following gavage administration (P.O.). Plasma samples were collected at specific time points, compound concentrations in plasma were detected by LC-MS/MS, and pharmacokinetic parameters were calculated to evaluate the pharmacokinetics.
• Mice, CD-1, male, Zhejiang Vital River Laboratory Animal Technology Co., Ltd. • Rats, Sprague-Dawley, male, Zhejiang Vital River Laboratory Animal Technology Co., Ltd., Shanghai Jihui Experimental Animal Breeding Co., Ltd.
After administration to mice and rats, venous blood samples of 0.03 mL and 0.2 mL, respectively, were collected at 0.0833 (IV), 0.25, 0.5, 1, 2, 4, 8, and 24 hours and placed in EDTA-K2 test tubes. Plasma was separated by centrifugation at 4 °C, 4000 g for 5 minutes and stored at -80 °C.
• 1) 10 µL of plasma sample was precipitated by adding 200 µL of acetonitrile, vortex mixed, and centrifuged for 15 minutes. • 2) The processed supernatant was diluted with water and analyzed by LC/MS/MS to determine the concentration of the test compound.
Pharmacokinetic parameters were calculated using WinNonlin 8.3. The pharmacokinetic parameters for mice P.O. are shown in Table 4, and for rats P.O. in Table 5. Cmax represents the maximum plasma concentration, T1/2 represents the terminal elimination half-life, MRTInf represents the mean residence time, and AUC represents the area under the plasma concentration-time curve. Table 4 Pharmacokinetic Parameters of the Compounds of the Present Disclosure in Mice

human CYP11B2 enzyme = target: T1, human CYP11B2 enzyme (Homo sapiens, UniProt P19099); assay: Enzyme inhibition activity assay in G402 cells stably expressing human CYP11B2 (aldosterone production from 11-DOC, LC/MS); format: cell-based; settings: 1 µM 11-DOC, 16 hours, aldosterone detected
T1 construct: the ORF of human CYP11B1 or CYP11B2 were transfected into G402 cells; expressed in transfected cells
T1 sequence (P19099 25-503): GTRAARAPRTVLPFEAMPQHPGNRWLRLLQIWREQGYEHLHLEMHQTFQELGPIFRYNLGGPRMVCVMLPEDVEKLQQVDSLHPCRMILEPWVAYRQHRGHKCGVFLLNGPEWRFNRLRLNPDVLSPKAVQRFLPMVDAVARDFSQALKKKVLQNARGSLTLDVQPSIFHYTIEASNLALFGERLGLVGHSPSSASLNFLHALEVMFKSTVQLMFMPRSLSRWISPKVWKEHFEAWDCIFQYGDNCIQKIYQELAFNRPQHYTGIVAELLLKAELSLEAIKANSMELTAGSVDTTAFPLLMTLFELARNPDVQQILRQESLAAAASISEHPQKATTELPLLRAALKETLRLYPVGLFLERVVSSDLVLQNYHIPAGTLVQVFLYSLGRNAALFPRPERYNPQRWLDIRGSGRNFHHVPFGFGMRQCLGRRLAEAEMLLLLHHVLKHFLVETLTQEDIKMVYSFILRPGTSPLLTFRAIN
Source text: (§1) G402 cells (ATCC, CRL 1440) are epithelioid cells isolated from the kidney of a patient with renal failure and are a type of leiomyoblastoma. For the screening of highly specific CYP11B2 inhibitors, we specifically used G402 cell lines stably expressing human CYP11B2 enzyme or human CYP11B1 enzyme for experimental development.
(§2) Construction of Stably Transfected Cell Lines: Expression plasmids containing suitable promoters, suitable drug resistance markers, and the ORF of human CYP11B1 or CYP11B2 were transfected into G402 cells using standard techniques. The cells were then screened using the specific puromycin resistance marker. Monoclonal cells stably expressing human CYP11B2 were selected for expansion, and 11-deoxycorticosterone (11-DOC) was used as the specific substrate to evaluate enzyme activity based on aldosterone production. Monoclonal cells stably expressing human CYP11B1 were selected for expansion, and 11-deoxycortisol (11-DC) was used as the specific substrate, with cortisol production as the detection target for specific enzyme activity evaluation. The G402 cell lines stably expressing CYP11B1/CYP11B2 were cultured at 37 °C, 5% CO2, 95% air in complete medium (McCoy's 5A + 10% FBS + 1% PS + 0.5 µg/mL puromycin).
(§3) Enzyme Inhibition Activity Assay: CYP11B1 G402/CYP11B2 G402 cells were spread out flatly in cell culture plates. After 24 hours, the medium was changed to an enzyme testing system (DMEM/F12 + 2.5% charcoal-stripped FCS). Small molecule inhibitors at various concentrations were added. After 1 hour, appropriate concentrations of specific substrates (1 µM 11-DOC / 1 µM 11-DC) were added and co-incubated with the cells for 16 hours. Cells were then collected, and specific products were detected using LC/MS methods with an AB SCIEX TRIPLE QUAD 5500+, CTO-40S instrument (CYP11B2 enzyme detecting aldosterone; CYP11B1 enzyme detecting cortisol).
(§4) The IC50 values of the compounds were determined based on the G402 testing system. The dose-dependent inhibition of enzyme activity was calculated by plotting the added inhibitor concentration (x-axis) against the percentage of product inhibitory activity relative to the control group (y-axis) based on product formation at various compound concentrations. The following data were then fitted using the least squares method with XLfit 5.5.0 for a four-parameter logistic curve fit: [formula] • Y-axis: Percentage of product inhibitory activity relative to the control group; • logIC50: IC50 was determined using XLFit.
(§5) The maximum enzyme activity corresponds to the amount of control product steroid/aldosterone in the absence of inhibitor, set as 100%. The minimum enzyme activity corresponds to the amount of reference control product steroid/aldosterone in the presence of inhibitor. Table 3 Inhibitory Activity of the Compounds of the Present Disclosure on CYP11B2 and CYP11B1

plasma hormone levels = assay: Pharmacodynamic determination in monkeys: plasma aldosterone and cortisol after ACTH stimulation; format: in vivo, cynomolgus monkeys; settings: P.O.
Protocol: Cynomolgus monkeys were used as test animals to evaluate the pharmacodynamics of multiple compounds of the present disclosure on plasma hormone levels following gavage administration (P.O.) at various doses such as 0.1 mpk (and others, e.g., 0.03 mpk, 0.1 mpk, and 0.3 mpk).
Male cynomolgus monkeys, Suzhou Xishan Zhongke Laboratory Animal Co., Ltd. Animal production license number: SCXK (Su) 2023-0001, animal use license number: SYXK (Su) 2020-0017.
Male cynomolgus monkeys were performed gavage administration (P.O.) at doses set as: 0 mpk (vehicle group, i.e., Veh group), 0.03 mpk, 0.1 mpk, and 0.3 mpk. In each group, 15 µg/kg ACTH was injected intramuscularly 1 hour after dosing. Continuous venous blood samples were collected from each group at 1 hour before administration and at multiple time points after administration. Blood samples were collected, and plasma aldosterone and its precursors, as well as plasma corticosterone and its precursors, at multiple time points were analyzed using LC/MS methods.
Venous blood samples were collected at 1-2 hours before gavage administration and at multiple time points after intramuscular injection of ACTH (adrenocorticotropic hormone). The samples were placed in EDTA-K2 tubes, centrifuged at 4 °C, 2600 g for 10 minutes to separate plasma, which was then stored at -80 °C.
• HPLC: Waters ACQUITY UPLC I-Class PLUS; • Mass spectrometry conditions: Triple Quad™ 7500 (Serial No. FA224362212) mass spectrometer; • Chromatographic column: phenomenex kinetex 2.6µm C8 100A 50 × 4.60 mm; • Mobile phase: mobile phase A was 0.5 mM ammonium fluoride solution containing 0.1% formic acid; mobile phase B was MeOH.
The data in Figs. 1, 2, 3, 4, and 5 are analyzed based on PD changes at 30 minutes after ACTH stimulation. The percentage of PD relative to the control group (Veh group) at 30 minutes after ACTH stimulation serves as the main basis for pharmacodynamic evaluation, calculated according to the following formula: [formula] where PD refers to aldosterone or cortisol. Table 8 Pharmacodynamic Evaluation of Example Compound C44 in Monkeys

human CYP11B1 enzyme = target: T2, human CYP11B1 enzyme (Homo sapiens, UniProt P15538); assay: Enzyme inhibition activity assay in G402 cells stably expressing human CYP11B1 (cortisol production from 11-DC, LC/MS); format: cell-based; settings: 1 µM 11-DC, 16 hours, cortisol detected
T2 construct: the ORF of human CYP11B1 or CYP11B2 were transfected into G402 cells; expressed in transfected cells
T2 sequence (P15538 25-503): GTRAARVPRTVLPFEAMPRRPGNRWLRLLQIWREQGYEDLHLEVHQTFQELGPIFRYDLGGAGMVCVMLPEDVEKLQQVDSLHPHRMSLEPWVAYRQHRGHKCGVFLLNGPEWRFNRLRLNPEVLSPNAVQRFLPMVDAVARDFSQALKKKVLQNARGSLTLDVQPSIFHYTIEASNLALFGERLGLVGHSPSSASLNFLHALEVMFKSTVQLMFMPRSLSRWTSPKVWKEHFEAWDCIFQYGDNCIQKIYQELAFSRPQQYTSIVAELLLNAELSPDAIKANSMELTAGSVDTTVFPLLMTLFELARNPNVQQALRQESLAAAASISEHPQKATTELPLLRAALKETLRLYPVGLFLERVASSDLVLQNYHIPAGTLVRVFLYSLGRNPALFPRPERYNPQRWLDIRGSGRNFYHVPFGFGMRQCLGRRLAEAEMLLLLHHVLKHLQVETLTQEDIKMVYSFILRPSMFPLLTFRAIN
Source text: as §1, §2, §3, §4, §5

in vivo = settings: male, Sprague-Dawley, rat, plasma, po, 10 mg/kg
Protocol: • 1) 50 µL of plasma sample was precipitated by adding 200 µL of acetonitrile, vortex mixed, and centrifuged for 15 minutes. • 2) The processed supernatant was diluted with water and analyzed by LC/MS/MS to determine the concentration of the test compound.
Pharmacokinetic parameters were calculated using WinNonlin 8.3. […] Cmax represents the maximum plasma concentration, T1/2 represents the terminal elimination half-life, MRTInf represents the mean residence time, and AUC represents the area under the plasma concentration-time curve.

[2] = 0.03 mpk, 30min after ACTH stimulation, plasma
[3] = 0.1 mpk, 30min after ACTH stimulation, plasma
[4] = 0.3 mpk, 30min after ACTH stimulation, plasma

## CCC(=O)N[C@@H]1CCCc2c(-c3cc(F)c4c(c3)COC(=O)N4C)cncc21 [Compound C44]
[1]
  Cmax: 53.1 µM
  MRT inf: 4.78 h
  half-life: 2.28 h
  AUC(0-t): 421 µM·h
Human CYP11B2 enzyme
  IC50: 187 nM
Plasma hormone levels; 0.03 mpk, 0h, plasma
  Aldosterone: 0.07 ng/mL
  Cortisol: 279.5 ng/mL
Plasma hormone levels; [2]
  Aldosterone: 0.28 ng/mL
  Cortisol: 384.0 ng/mL
Plasma hormone levels; 0.1 mpk, 0h, plasma
  Aldosterone: 0.24 ng/mL
  Cortisol: 455.0 ng/mL
Plasma hormone levels; [3]
  Aldosterone: 0.20 ng/mL
  Cortisol: 538.5 ng/mL
Plasma hormone levels; 0.3 mpk, 0h, plasma
  Aldosterone: 0.07 ng/mL
  Cortisol: 265.5 ng/mL
Plasma hormone levels; [4]
  Aldosterone: 0.07 ng/mL
  Cortisol: 396.0 ng/mL

## CCC(=O)N[C@@H]1CCOc2c(-c3ccc4c(ccc(=O)n4C)c3)cncc21 [Compound A09]
Human CYP11B1 enzyme
  IC50: 3380 nM and 18800 nM
Human CYP11B2 enzyme
  IC50: 8.2 nM and 13.8 nM
Plasma hormone levels; 0.03 mpk, 0h, plasma
  Aldosterone: 0.20 ng/mL
  Cortisol: 214.0 ng/mL
Plasma hormone levels; [2]
  Aldosterone: 0.34 ng/mL
  Cortisol: 285.3 ng/mL
Plasma hormone levels; 0.1 mpk, 0h, plasma
  Aldosterone: 0.24 ng/mL
  Cortisol: 256.7 ng/mL
Plasma hormone levels; [3]
  Aldosterone: 012 ng/mL
  Cortisol: 345.0 ng/mL
Plasma hormone levels; 0.3 mpk, 0h, plasma
  Aldosterone: 0.08 ng/mL
  Cortisol: 286.7 ng/mL
Plasma hormone levels; [4]
  Aldosterone: 0.07 ng/mL
  Cortisol: 388.3 ng/mL
In vivo
  AUC(0-t): 522 µM·h
  Cmax: 52.1 µM
  MRT inf: 8.19 h
  half-life: 5.91 h

## CCC(=O)N[C@@H]1CCCc2c(-c3cc(F)c4c(ccc(=O)n4C)c3)cncc21 [Compound C41]
Human CYP11B1 enzyme
  IC50: 4900 nM
[1]
  Cmax: 25 µM
  MRT inf: 5.07 h
  half-life: 2.83 h
  AUC(0-t): 209 µM·h
Human CYP11B2 enzyme
  IC50: 11.1 nM

## CCC(=O)N[C@@H]1CCCc2c(-c3cc(C)c4c(ccc(=O)n4C)c3)cncc21 [Compound C43]
Human CYP11B1 enzyme
  IC50: 7220 nM
Human CYP11B2 enzyme
  IC50: 16.7 nM
Plasma hormone levels; 0.03 mpk, 0h, plasma
  Aldosterone: 0.16 ng/mL
Plasma hormone levels; 0.03 mpk, 0h, plasma (Table 11)
  Cortisol: 268.3 ng/mL
Plasma hormone levels; [2]
  Aldosterone: 0.26 ng/mL
Plasma hormone levels; 0.03 mpk, 30min after ACTH stimulation, plasma (Table 11)
  Cortisol: 358.7 ng/mL
Plasma hormone levels; 0.1 mpk, 0h, plasma
  Aldosterone: 0.16 ng/mL
Plasma hormone levels; 0.1 mpk, 0h, plasma (Table 11)
  Cortisol: 282.0 ng/mL
Plasma hormone levels; [3]
  Aldosterone: 0.15 ng/mL
Plasma hormone levels; 0.1 mpk, 30min after ACTH stimulation, plasma (Table 11)
  Cortisol: 386.0 ng/mL
Plasma hormone levels; 0.3 mpk, 0h, plasma
  Aldosterone: 0.20 ng/mL
Plasma hormone levels; 0.3 mpk, 0h, plasma (Table 11)
  Cortisol: 276.0 ng/mL
Plasma hormone levels; [4]
  Aldosterone: 0.14 ng/mL
Plasma hormone levels; 0.3 mpk, 30min after ACTH stimulation, plasma (Table 11)
  Cortisol: 346.7 ng/mL
In vivo
  AUC(0-t): 345 µM·h
  Cmax: 47.9 µM
  MRT inf: 6.24 h
  half-life: 4.77 h

## CCC(=O)N[C@@H]1CCCc2c(-c3ccc4c(c3)COC(=O)N4C)cncc21 [Compound C07]
Human CYP11B1 enzyme
  IC50: 1150 nM
[1]
  Cmax: 30.2 µM
  MRT inf: 4.36 h
  half-life: 2.54 h
  AUC(0-t): 223 µM·h
Human CYP11B2 enzyme
  IC50: 13.2 nM
